{"source": "patent US11254635B2", "about": "“Emodin succinyl ester compound, preparation method therefor and application thereof” (JIANGSU KANION PHARMACEUTICAL CO., LTD., priority 2017, dated 2022)", "key": {"[1]": {"details": "cited from earlier work"}, "[2]": {"tested_on": "rats with mixed hyperlipidemia", "experiment": "Comparison of emodin succinyl ethyl ester and emodin in lowering blood lipid levels in rats with mixed hyperlipidemia, Example 7", "format": "in vivo", "experimental": "(§1) Feeding rats with high-fat feed containing cholesterol, sucrose, lard and sodium cholate can form a rat model of lipid metabolism disorders and then the rats are administered with a drug, detect the effects of the test object on hyperlipidemia, and determine the effect of the test object on the lipid absorption, lipoprotein formation, lipid degradation or excretion in rats.\nSecond random grouping: After the establishment of the rat hyperlipidemia model, the blood lipids of the rats were measured, and rats in the hyperlipidemia model group were randomly divided into four groups, 11 rats in the positive drug group, 10 rats in each of the other groups. The four groups were the hyperlipidemia model group, the low-dose test object (emodin succinyl ethyl ester in a dose of 20 mg/kg·d^−1) group, the emodin (20 mg/kg·d^−1) group, and the positive control drug (Atorvastatin calcium group in a dose of 10 mg/kg·d^−1) group, respectively.\nIn the experimental groups, rats in the blank control group were fed with maintenance feed and the remaining 4 groups were fed with a high-fat diet. After 2 weeks, the levels of TG, TC, LDL-C and HDL-C in the serum of the rats were measured. The rats were weighed once a week.\n(§2) The rats in the successfully grouped test object (emodin succinyl ethyl ester) group, emodin group and positive control drug group (atorvastatin calcium group) were intragastrically administered daily. Rats in the blank control group and the hyperlipidemia model group were given corresponding doses of lysozyme.\nFeeding conditions remained unchanged. The rats were weighed once a week. Blood were collected at the tip of the tail two weeks after drug administration. The effect of the test object on the TC, TG, LDL-C and HDL-C in serum of the rats were observed."}, "[3]": {"tested_on": "rats with mixed hyperlipidemia", "experiment": "Blood lipid levels in rats with mixed hyperlipidemia (high-fat feed), Example 6", "format": "in vivo", "details": "two weeks; for effect on TG in serum: high dose of the ester; for effect on TG in serum / effect on LDL-C in serum / effect on TC in serum: atorvastatin calcium 10 mg/kg, vs hyperlipidemia group; for effect on LDL-C in serum / effect on TC in serum: low, medium, high doses of the ester; for LDL-C / TC / TG: serum, high-fat diet", "experimental": "as §1, with “lard,” for “lard”, “disorders,” for “disorders”, “administrated” for “administered”, “with” for “with a”, “effect” for “effects”\n(§3) Second random grouping: After the establishment of the rat hyperlipidemia model, the blood lipids of the rats were measured, and rats in the hyperlipidemia model group were randomly divided into five groups, 11 rats in the positive drug group, 10 rats in each of the other groups. The five groups were the hyperlipidemia model group, the low-dose test object group (emodin succinyl ethyl ester in a dose of 10 mg/kg·d^−1), the medium-dose test object group (emodin succinyl ethyl ester in a dose of 20 mg/kg·d^−1), the high-dose test object group (emodin succinyl ethyl ester in a dose of 40 mg/kg·d^−1), and the positive control drug group (Atorvastatin calcium group in a dose of 10 mg/kg·d^−1), respectively.\nIn the experimental groups, rats in the blank control group were fed with maintenance feed and the remaining 5 groups were fed with high-fat diet. After 2 weeks, the levels of TG, TC, LDL-C and HDL-C in the serum of the rats were measured. The rats were weighed once a week.\nas §2, with “grouped high-dose” for “grouped”, “object, medium-dose, and low-dose groups” for “object (emodin succinyl ethyl ester) group, emodin group”\n(§4) Feeding conditions remained unchanged. The rats were weighed once a week. Blood were collected at the tip of the tail two weeks after drug administration and livers were taken, to determine the levels of TC, TG, LDL-C, and HDL-C in serum of the rats and the levels of TC and TG in the liver, and then the effect of the test object on the TC, TG, LDL-C and HDL-C in serum of the rats and the TC and TG in liver were observed."}, "[4]": {"tested_on": "rats with mixed hyperlipidemia", "experiment": "Levels of TC and TG in the liver of rats with mixed hyperlipidemia, Example 6", "format": "in vivo", "details": "two weeks; for TC / TG: liver, high-fat diet; for effect on TC in liver / effect on TG in liver: low, medium, high doses of the ester, atorvastatin calcium 10 mg/kg, vs hyperlipidemia model group", "experimental": "as §1, with “lard,” for “lard”, “disorders,” for “disorders”, “administrated” for “administered”, “with” for “with a”, “effect” for “effects”\nas §3\nas §2, with “grouped high-dose” for “grouped”, “object, medium-dose, and low-dose groups” for “object (emodin succinyl ethyl ester) group, emodin group”\nas §4\n(3) TC and TG in liver, measured after sampling"}, "[5]": {"tested_on": "skin wound of mice with type 1 diabetes", "experiment": "Wound healing of mice with diabetes (STZ model, 5 mm skin punch wound)", "format": "in vivo, Kunming mice", "details": "100 μg/mL oil, 10 μL dripped on the wound once a day, 14 days; vs diabetes model, solvent control and emodin groups", "experimental": "SPF-grade male Kunming mice (18-20 g) were adaptively fed with ordinary maintenance feed for 3-5 days, weighed and randomly divided into a blank control group (Control) and a diabetes model group. Mice in the diabetes model group were administrated with high-dose STZ (streptozotocin, 180 mg/kg) through intraperitoneal injection and fasting blood glucose was measured after one week. The mice successfully modeled were randomly divided into 5 groups, namely, the diabetes model group (Model), the solvent control group (Solvent), the positive drug (recombinant human epidermal growth factor) control group (EGF), the emodin group (DHS), and the emodin succinyl ethyl ester group (DHS-YSW).\nAnimals in each group were anesthetized with sodium pentobarbital (1%) and shaved on the back. A 5 mm skin punch was used to establish a 5 mm wound model at the highest part of the back. The Control group and the Model group were not treated with any drugs. The solvent control group was dripped with 10 μL of sterile vegetable oil. The positive drug group was dripped with 10 μL of recombinant human epidermal factor solution (2000 IU/mL) each day. The other groups were dripped on the wound with 10 μL of a corresponding drug, once a day for 14 consecutive days. […]\nThe experimental data were expressed as mean±standard error. […] The experimental results were all analyzed and graphed using GraphpadPrism6.0."}, "[6]": {"tested_on": "oleic acid-induced hyperlipemia cells (HepG2 cell line)", "experiment": "Levels of TC and TG in oleic acid-induced hyperlipemia cells", "format": "cell-based", "details": "for TC / TG: HepG2, oleic acid 200 μmol/L, 24 hours", "experimental": "Oleic acid is added to culture HepG2 cells to induce a hyperlipemia cell model, and then the cells are given a test drug, the effect of the test object on the lipid level of the cells is detected.\nWhen the degree of cell fusion reached about 80%, except for the normal group, cells in other groups were all added with oleic acid at a dose of 200 μmol/L, and then the cells were divided into five groups: the normal group, the oleic acid-induced hyperlipemia group, low-dose emodin succinyl ethyl ester group (5 μmol/L), the medium-dose emodin succinyl ethyl ester group (10 μmol/L) and the high dose emodin succinyl ethyl ester group (20 μmol/L). 24 hours later, the levels of TC and TG were measured.\nThe cells were digested with 0.25% trypsin to prepare a cell suspension; the cell suspension was centrifuged at 1000 rpm for 10 minutes; the supernatant was discarded, and the cell pellet was collected, washed with PBS once or twice, and configured at 1000 rpm for 10 minutes; the supernatant was discarded, and the cell pellet was collected.\n200 μl of 2% TritonX-100 was added for lysis for 30 minutes.\nFirst, the protein concentration of the sample was determined using the Beyotime kit. Then, 250 μl of working solution was added to a 96-well plate, 2.5 μl of distilled water was added to the blank wells, 2.5 μl of calibration solution was added to the calibration wells, 2.5 μl of sample was added to the sample wells, and they were all incubated for 10 minutes at 37° C. The OD values were measured by using a 510 nm microplate reader.\n3.2.4 Calculation Formulas: Cholesterol content=(sample OD value−blank OD value)/(calibrated OD value−blank OD value)*5.17/protein concentration of the sample to be tested Triglyceride content=(sample OD value−blank OD value)/(calibrated OD value−blank OD value)*2.26/protein concentration of the sample to be tested."}, "[7]": {"details": "20 mg/kg·d^−1, two weeks, vs hyperlipidemia group"}, "[8]": {"details": "20 mg/kg·d^−1 vs equivalent dose of emodin (20 mg/kg·d^−1), two weeks"}, "[9]": {"details": "10 mg/kg intragastrically once a day"}, "[10]": {"details": "20 mg/kg intragastrically once a day"}, "[11]": {"details": "40 mg/kg intragastrically once a day"}, "[12]": {"details": "low, medium and high doses (5, 10, 20 μmol/L), vs oleic acid group"}}, "note": "Read-outs that look alike come from different tables or passages of the source.", "data": [{"smiles": "Cc1cc(O)c2c(c1)C(=O)c1cc(O)cc(O)c1C2=O", "note": "[emodin, 1,3,8-trihydroxy-6-methylanthraquinone]", "values": [{"measurement": "absolute bioavailability", "setting": "[1]; female SD rats", "value": 5, "unit": "%"}, {"measurement": "absolute bioavailability", "setting": "[1]; male SD rats", "value": 7.5, "unit": "%"}]}, {"smiles": "CCOC(=O)CCC(=O)Oc1cc(O)c2c(c1)C(=O)c1cc(C)cc(O)c1C2=O", "note": "[emodin succinyl ethyl ester, 1,8-dihydroxy-3-succinic acid monoethyl group-6-Methylanthraquinone]", "values": [{"measurement": "effect on LDL-C in serum", "setting": "[2]; [7]", "value": "significantly reduce"}, {"measurement": "effect on TC in serum", "setting": "[2]; [7]", "value": "significantly reduce"}, {"measurement": "lowering LDL-C in serum compared with emodin", "setting": "[2]; [8]", "value": "better effects"}, {"measurement": "lowering TC in serum compared with emodin", "setting": "[2]; [8]", "value": "better effects"}, {"measurement": "effect on TG in serum", "setting": "[3]", "value": "significantly reduce"}, {"measurement": "effect on LDL-C in serum", "setting": "[3]", "value": "significantly reduce"}, {"measurement": "effect on TC in serum", "setting": "[3]", "value": "significantly reduce"}, {"measurement": "LDL-C", "setting": "[3]; [9]", "value": "0.17 ± 0.08", "unit": "mmol/L"}, {"measurement": "TC", "setting": "[3]; [9]", "value": "2.60 ± 0.74", "unit": "mmol/L"}, {"measurement": "TG", "setting": "[3]; [9]", "value": "3.98 ± 0.63", "unit": "mmol/L"}, {"measurement": "LDL-C", "setting": "[3]; [10]", "value": "0.15 ± 0.05", "unit": "mmol/L"}, {"measurement": "TC", "setting": "[3]; [10]", "value": "2.36 ± 0.78", "unit": "mmol/L"}, {"measurement": "TG", "setting": "[3]; [10]", "value": "4.12 ± 0.37", "unit": "mmol/L"}, {"measurement": "LDL-C", "setting": "[3]; [11]", "value": "0.18 ± 0.03", "unit": "mmol/L"}, {"measurement": "TC", "setting": "[3]; [11]", "value": "2.88 ± 0.34", "unit": "mmol/L"}, {"measurement": "TG", "setting": "[3]; [11]", "value": "3.23 ± 0.12", "unit": "mmol/L"}, {"measurement": "TC", "setting": "[4]; [9]", "value": "0.069 ± 0.010", "unit": "mmol/L"}, {"measurement": "TG", "setting": "[4]; [9]", "value": "0.105 ± 0.023", "unit": "mmol/L"}, {"measurement": "TC", "setting": "[4]; [10]", "value": "0.078 ± 0.010", "unit": "mmol/L"}, {"measurement": "TG", "setting": "[4]; [10]", "value": "0.127 ± 0.016", "unit": "mmol/L"}, {"measurement": "TC", "setting": "[4]; [11]", "value": "0.059 ± 0.005", "unit": "mmol/L"}, {"measurement": "TG", "setting": "[4]; [11]", "value": "0.079 ± 0.011", "unit": "mmol/L"}, {"measurement": "effect on TC in liver", "setting": "[4]", "value": "reduce"}, {"measurement": "effect on TG in liver", "setting": "[4]", "value": "reduce"}, {"measurement": "wound healing speed", "setting": "[5]", "value": "significantly faster wound healing speed"}, {"measurement": "TC", "setting": "[6]; 5 μmol/L", "value": "0.730 ± 0.168", "unit": "mmol/L"}, {"measurement": "TG", "setting": "[6]; 5 μmol/L", "value": "0.610 ± 0.308", "unit": "mmol/L"}, {"measurement": "TC", "setting": "[6]; 10 μmol/L", "value": "0.506 ± 0.197^###& mmol/L"}, {"measurement": "TG", "setting": "[6]; 10 μmol/L", "value": "0.487 ± 0.347", "unit": "mmol/L"}, {"measurement": "TC", "setting": "[6]; 20 μmol/L", "value": "0.537 ± 0.145^###&& mmol/L"}, {"measurement": "TG", "setting": "[6]; 20 μmol/L", "value": "0.414 ± 0.209", "unit": "mmol/L"}, {"measurement": "effect on level of TC of cells", "setting": "[6]; [12]", "value": "significantly reduce"}, {"measurement": "effect on level of TG of cells", "setting": "[6]; [12]", "value": "significantly reduce"}]}, {"smiles": "CC(C)c1c(C(=O)Nc2ccccc2)c(-c2ccccc2)c(-c2ccc(F)cc2)n1CC[C@@H](O)C[C@@H](O)CC(=O)[O-].CC(C)c1c(C(=O)Nc2ccccc2)c(-c2ccccc2)c(-c2ccc(F)cc2)n1CC[C@@H](O)C[C@@H](O)CC(=O)[O-].[Ca+2]", "note": "[Atorvastatin calcium, reference compound]", "values": [{"measurement": "effect on TG in serum", "setting": "[3]", "value": "significantly reduce"}, {"measurement": "effect on LDL-C in serum", "setting": "[3]", "value": "significantly reduce"}, {"measurement": "effect on TC in serum", "setting": "[3]", "value": "significantly reduce"}, {"measurement": "LDL-C", "setting": "[3]; [9]", "value": "0.13 ± 0.03", "unit": "mmol/L"}, {"measurement": "TC", "setting": "[3]; [9]", "value": "2.82 ± 1.02", "unit": "mmol/L"}, {"measurement": "TG", "setting": "[3]; [9]", "value": "2.94 ± 0.20", "unit": "mmol/L"}, {"measurement": "TC", "setting": "[4]; [9]", "value": "0.066 ± 0.004", "unit": "mmol/L"}, {"measurement": "TG", "setting": "[4]; [9]", "value": "0.090 ± 0.008", "unit": "mmol/L"}, {"measurement": "effect on TC in liver", "setting": "[4]", "value": "reduce"}, {"measurement": "effect on TG in liver", "setting": "[4]", "value": "reduce"}]}]}
